The nature of this series: CuAAC: 1,7-diethynyl PDI 8 + bis-azide, [1+1] macrocyclisation; Cu(MeCN)4PF6 0.4 eq with TBTA 0.4 eq (THPTA for 2a), N2, rt. As to conditions: the molecule shown is the open-chain precursor, CH2Cl2, 0.22 mM, 25.0 °C.

Take `C#Cc1cc2c3c(ccc4c5c(-c6cn(CCCCCCCCOc7ccc8ccccc8c7-c7c(OCCCCCCCCN=[N+]=[N-])ccc8ccccc78)nn6)cc6c7c(ccc(c1c34)c75)C(=O)N(c1c(C(C)C)cccc1C(C)C)C6=O)C(=O)N(c1c(C(C)C)cccc1C(C)C)C2=O`: the ring closure, isolated yield (34-membered ring, 96.0 h) stood at 33%.
On to `C#Cc1cc2c3c(ccc4c5c(-c6cn(CCCCCCOc7ccc8ccccc8c7-c7c(OCCCCCCN=[N+]=[N-])ccc8ccccc78)nn6)cc6c7c(ccc(c1c34)c75)C(=O)N(c1c(C(C)C)cccc1C(C)C)C6=O)C(=O)N(c1c(C(C)C)cccc1C(C)C)C2=O`, for which, where the note is “30-membered ring, 96.0 h”, the ring closure, isolated yield stood at 53%.
Turning to `C#Cc1cc2c3c(ccc4c5c(-c6cn(CCCCOc7ccc(OCCCCN=[N+]=[N-])cc7)nn6)cc6c7c(ccc(c1c34)c75)C(=O)N(c1c(C(C)C)cccc1C(C)C)C6=O)C(=O)N(c1c(C(C)C)cccc1C(C)C)C2=O` [1a (hydroquinone, n=4)], where the note is “26-membered ring, 96.0 h”, the ring closure, isolated yield is 24%.
Turning to `C#Cc1cc2c3c(ccc4c5c(-c6cn(CCCCCCOc7ccc(OCCCCCCN=[N+]=[N-])cc7)nn6)cc6c7c(ccc(c1c34)c75)C(=O)N(c1c(C(C)C)cccc1C(C)C)C6=O)C(=O)N(c1c(C(C)C)cccc1C(C)C)C2=O` [1b (hydroquinone, n=6)], the ring closure, isolated yield (30-membered ring, 96.0 h) came to 23%.
In the case of `C#Cc1cc2c3c(ccc4c5c(-c6cn(CCCCOc7ccc8ccccc8c7-c7c(OCCCCN=[N+]=[N-])ccc8ccccc78)nn6)cc6c7c(ccc(c1c34)c75)C(=O)N(c1c(C(C)C)cccc1C(C)C)C6=O)C(=O)N(c1c(C(C)C)cccc1C(C)C)C2=O` [2a (P-BINOL, n=4; PM 2% + PP 2%, dr 1:1)], the ring closure, isolated yield (26-membered ring, 144.0 h) amounted to 4%.

Values taken from PMC11023033.
